Results published in PubChem BioAssay (NCI).
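Cells were grown in 96-well plates and exposed to each compound for 48 hours at five concentrations; endpoints were interpolated linearly between bracketing concentrations, or set to the highest concentration if not reached. Abbreviation: GI50, concentration required for 50% inhibition of growth. At the TGI there is no net growth.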

Columns and labels:
Assay in all cases: NCI anticancer screen, dose series, 48 h
[1] = test system: 786-0 renal
[2] = test system: A498 renal
[3] = test system: A549 NSCLC
[4] = test system: ACHN renal
[5] = test system: BT-549 breast
[6] = test system: CAKI-1 renal
[7] = test system: CCRF-CEM leukemia
[8] = test system: COLO 205 colon
[9] = test system: DU-145 prostate
[10] = test system: EKVX NSCLC
[11] = test system: HCC-2998 colon
[12] = test system: HCT-116 colon
[13] = test system: HCT-15 colon
[14] = test system: HL-60(TB) leukemia
[15] = test system: HOP-62 NSCLC
[16] = test system: HOP-92 NSCLC
[17] = test system: HS 578T breast
[18] = test system: HT29 colon
[19] = test system: IGROV1 ovarian
[20] = test system: K-562 leukemia
[21] = test system: KM12 colon
[22] = test system: LOX IMVI melanoma
[23] = test system: M14 melanoma
[24] = test system: MALME-3M melanoma
[25] = test system: MCF7 breast
[26] = test system: MDA-MB-231 breast
[27] = test system: MDA-MB-435
[28] = test system: MOLT-4 leukemia
[29] = test system: NCI-H226 lung
[30] = test system: NCI-H23 lung
[31] = test system: NCI-H460 lung
[32] = test system: NCI-H522 lung
[33] = test system: NCI/ADR-RES ovarian
[34] = test system: OVCAR-3 ovarian
[35] = test system: OVCAR-4 ovarian
[36] = test system: OVCAR-5 ovarian
[37] = test system: OVCAR-8 ovarian
[38] = test system: PC-3 prostate
[39] = test system: RPMI-8226 leukemia
[40] = test system: RXF 393 renal
[41] = test system: SF-268 CNS
[42] = test system: SF-295 CNS
[43] = test system: SF-539 CNS
[44] = test system: SK-MEL-2 melanoma
[45] = test system: SK-MEL-28 melanoma
[46] = test system: SK-MEL-5 melanoma
[47] = test system: SK-OV-3 ovarian
[48] = test system: SN12C renal
[49] = test system: SNB-19 CNS
[50] = test system: SNB-75 CNS
[51] = test system: SR leukemia
[52] = test system: SW-620 colon
[53] = test system: T-47D breast
[54] = test system: TK-10 renal
[55] = test system: U251 CNS
[56] = test system: UACC-257 melanoma
[57] = test system: UACC-62 melanoma
[58] = test system: UO-31 renal

Molecule `COC(=O)C1=CN(CC2=CC(=O)C(C)=CC2=O)C=C(C(=O)OC)C1c1cc(OC)ccc1OC` has a GI50 [1] of 2280 nM, a TGI [1] of 5.54 µM and a GI50 [2] of 15 µM. The TGI [2] was 29.7 µM, the GI50 [3] was 13.5 µM and the TGI [3] was 31.2 µM. For the same molecule, the GI50 [4] was 1850 nM, the TGI [4] was 3.87 µM and the GI50 [5] was 17.1 µM. For the same molecule, the TGI [5] was 41.7 µM, the GI50 [6] was 6.38 µM and the TGI [6] was 13.5 µM. It also gave a GI50 [7] of 1730 nM, a TGI [7] of 3610 nM and a GI50 [8] of 8.56 µM. It also gave a TGI [8] of 30.6 µM, a GI50 [9] of 13.8 µM and a TGI [9] of 26.8 µM. The GI50 [10] was 16 µM, the TGI [10] was 31.8 µM and the GI50 [11] was 5.79 µM. It also gave a TGI [11] of 13.4 µM, a GI50 [12] of 1870 nM and a TGI [12] of 3280 nM. For the same molecule, the GI50 [13] was 13.5 µM, the TGI [13] was 30 µM and the GI50 [14] was 6.8 µM. The TGI [14] was 99.4 µM, the GI50 [15] was 19.9 µM and the TGI [15] was 38 µM. For the same molecule, the GI50 [16] was 658 nM, the TGI [16] was 11.9 µM and the GI50 [17] was 4540 nM. The TGI [17] was 27.3 µM, the GI50 [18] was 4.71 µM and the TGI [18] was > 100 µM. The GI50 [19] was 16.6 µM, the TGI [19] was 43.1 µM and the GI50 [20] was 3850 nM. The GI50 [21] was 16.1 µM, the TGI [21] was 31.7 µM and the GI50 [22] was 13.7 µM. The TGI [22] was 26.6 µM, the GI50 [23] was 12.1 µM and the TGI [23] was 26.5 µM. For the same molecule, the GI50 [24] was 20 µM, the TGI [24] was 36 µM and the GI50 [25] was 22.7 µM. The TGI [25] was > 92200 nM, the GI50 [26] was 15.7 µM and the TGI [26] was 30.2 µM. For the same molecule, the GI50 [27] was 16.7 µM, the TGI [27] was 31.2 µM and the GI50 [28] was 2210 nM. The GI50 [29] was 20.1 µM, the TGI [29] was 54.3 µM and the GI50 [30] was 13.4 µM. The TGI [30] was 28.6 µM, the GI50 [31] was 20.4 µM and the TGI [31] was > 95.8 µM. The GI50 [32] was 18.9 µM, the TGI [32] was > 56200 nM and the GI50 [33] was 15.7 µM. It also gave a TGI [33] of 39.2 µM, a GI50 [34] of 12.5 µM and a TGI [34] of 29.2 µM. For the same molecule, the GI50 [35] was 12.5 µM, the TGI [35] was 30.9 µM and the GI50 [36] was 13.9 µM. The TGI [36] was 28 µM, the GI50 [37] was 12.9 µM and the TGI [37] was 38.4 µM. The GI50 [38] was 9.42 µM, the TGI [38] was 24.7 µM and the GI50 [39] was 1900 nM. The TGI [39] was 4830 nM, the GI50 [40] was 3000 nM and the TGI [40] was 11.6 µM. It also gave a GI50 [41] of 13.8 µM, a TGI [41] of 31.3 µM and a GI50 [42] of 18.5 µM. For the same molecule, the TGI [42] was 38 µM, the GI50 [43] was 16.6 µM and the TGI [43] was 31.9 µM. The GI50 [44] was 24 µM, the TGI [44] was > 73000 nM and the GI50 [45] was 15.4 µM. It also gave a TGI [45] of 40.5 µM, a GI50 [46] of 14.8 µM and a TGI [46] of 29.1 µM. For the same molecule, the GI50 [47] was 23 µM, the TGI [47] was > 54.8 µM and the GI50 [48] was 16 µM. For the same molecule, the TGI [48] was 33.2 µM, the GI50 [49] was 14.1 µM and the TGI [49] was 48.1 µM. It also gave a GI50 [50] of 25.4 µM, a TGI [50] of 74.1 µM and a GI50 [51] of 2590 nM. The TGI [51] was > 22300 nM, the GI50 [52] was 3380 nM and the TGI [52] was 11.6 µM. The GI50 [53] was 3030 nM, the TGI [53] was > 100000 nM and the GI50 [54] was 10.7 µM. For the same molecule, the TGI [54] was 36.8 µM, the GI50 [55] was 6.87 µM and the TGI [55] was 20.2 µM. It also gave a GI50 [56] of 14.1 µM, a TGI [56] of 27.4 µM and a GI50 [57] of 13.3 µM. The TGI [57] was 26.4 µM, the GI50 [58] was 4940 nM and the TGI [58] was 9.44 µM.
`O=C(Nc1ccc([As]=[As]c2ccc(NC(=O)c3ccccc3)cc2)cc1)c1ccccc1` (stereo not given) was tested, and the GI50 [1] was 454 nM, the TGI [1] was 1.67 µM and the GI50 [2] was 1.15 µM. It also gave a TGI [2] of 2.36 µM, a GI50 [3] of 1.84 µM and a TGI [3] of 3.59 µM. It also gave a GI50 [4] of 1190 nM, a TGI [4] of 2.45 µM and a GI50 [5] of 0.343 µM. It also gave a TGI [5] of 1.19 µM, a GI50 [6] of 0.582 µM and a TGI [6] of 1.89 µM. For the same molecule, the GI50 [7] was 136 nM, the TGI [7] was 428 nM and the GI50 [8] was 0.239 µM. The TGI [8] was 0.769 µM, the GI50 [9] was 1.44 µM and the TGI [9] was 2.75 µM. For the same molecule, the GI50 [10] was 1.18 µM, the TGI [10] was 2.64 µM and the GI50 [11] was 1.24 µM. For the same molecule, the TGI [11] was 2.5 µM, the GI50 [12] was 234 nM and the TGI [12] was 624 nM. For the same molecule, the GI50 [13] was 0.302 µM, the TGI [13] was 1.36 µM and the GI50 [14] was 0.328 µM. The TGI [14] was 2.09 µM, the GI50 [15] was 1.24 µM and the TGI [15] was 2.64 µM. For the same molecule, the GI50 [16] was 179 nM, the TGI [16] was 0.642 µM and the GI50 [17] was 478 nM. The TGI [17] was 6.32 µM, the GI50 [18] was 1.42 µM and the TGI [18] was 3.44 µM. The GI50 [19] was 0.756 µM, the TGI [19] was 2.25 µM and the GI50 [20] was 215 nM. The TGI [20] was 560 nM, the GI50 [21] was 1.69 µM and the TGI [21] was 3.12 µM. The GI50 [22] was 0.262 µM, the TGI [22] was 0.786 µM and the GI50 [23] was 1.13 µM. The TGI [23] was 2.49 µM, the GI50 [24] was 0.184 µM and the TGI [24] was 0.571 µM. The GI50 [25] was 0.208 µM, the TGI [25] was 547 nM and the GI50 [26] was 0.323 µM. The TGI [26] was 1.33 µM, the GI50 [27] was 0.734 µM and the TGI [27] was 2.11 µM. For the same molecule, the GI50 [28] was 339 nM, the TGI [28] was 1840 nM and the GI50 [29] was 0.662 µM. For the same molecule, the TGI [29] was 1.64 µM, the GI50 [30] was 0.391 µM and the TGI [30] was 1.48 µM. For the same molecule, the GI50 [31] was 2.03 µM, the TGI [31] was 4.51 µM and the GI50 [32] was 0.0743 µM. For the same molecule, the TGI [32] was 217 nM, the GI50 [33] was 1.32 µM and the TGI [33] was 2.65 µM. For the same molecule, the GI50 [34] was 0.285 µM, the TGI [34] was 0.812 µM and the GI50 [35] was 0.466 µM. For the same molecule, the TGI [35] was 1.81 µM, the GI50 [36] was 1.17 µM and the TGI [36] was 2.53 µM. The GI50 [37] was 0.333 µM, the TGI [37] was 1.22 µM and the GI50 [38] was 1.18 µM. It also gave a TGI [38] of 2.46 µM, a GI50 [39] of 247 nM and a TGI [39] of 728 nM. The GI50 [40] was 192 nM, the TGI [40] was 0.499 µM and the GI50 [41] was 0.424 µM. The TGI [41] was 1.59 µM, the GI50 [42] was 1.51 µM and the TGI [42] was 3.08 µM. The GI50 [43] was 0.381 µM, the TGI [43] was 1.53 µM and the GI50 [44] was 0.334 µM. For the same molecule, the TGI [44] was 1010 nM, the GI50 [45] was 0.214 µM and the TGI [45] was 0.531 µM. It also gave a GI50 [46] of 0.846 µM, a TGI [46] of 2.1 µM and a GI50 [47] of 1.9 µM. For the same molecule, the TGI [47] was 3.31 µM, the GI50 [48] was 0.679 µM and the TGI [48] was 1.98 µM. The GI50 [49] was 1.47 µM, the TGI [49] was 2.84 µM and the GI50 [50] was 0.242 µM. It also gave a TGI [50] of 1.51 µM, a GI50 [51] of 258 nM and a TGI [51] of 751 nM. It also gave a GI50 [52] of 227 nM, a TGI [52] of 0.74 µM and a GI50 [53] of 173 nM. The TGI [53] was 493 nM, the GI50 [54] was 0.329 µM and the TGI [54] was 1.13 µM. The GI50 [55] was 0.255 µM, the TGI [55] was 0.716 µM and the GI50 [56] was 0.244 µM. The TGI [56] was 1.01 µM, the GI50 [57] was 0.313 µM and the TGI [57] was 1.28 µM. For the same molecule, the GI50 [58] was 975 nM and the TGI [58] was 2.25 µM.
